In assay [1] the test system is murine Lewis lung carcinoma cell line (LLC1). In words: Taxol and MGd, tumor regrowth delay in subcutaneous Lewis lung carcinoma model. Format: in vivo, Female C57BL mice. Particulars: control group 11.40 days.
The test system is the same in assay [2]. In words: BCNU and MGd, tumor regrowth delay in subcutaneous Lewis lung carcinoma model. It counts as in vivo, Female C57BL mice. The settings on record: control group 11.45 days.
The test system is the same in assay [3]. It counts as in vivo, Female C57BL mice. The settings on record: control group 12.11 days.
In the next assay the test system is murine Lewis lung cancer. In words: Carboplatin and MGd, murine Lewis lung cancer in C57 mice. Particulars: Group #2: 20 μmol/kg MGd on day 7 post tumor inoculation; control group 12.14 days. It counts as in vivo.

Four molecules from patent US20050261171A1, “Combination cancer therapy” (Pharmacyclics, Inc., priority 2001, published 2005) can be followed below.

Like-named read-outs stand apart in the source and are kept apart here.

As for `CC(=O)O[C@H]1C(=O)[C@@]2(C)[C@H]([C@H](OC(=O)c3ccccc3)[C@]3(O)C[C@H](OC(=O)[C@H](O)[C@@H](NC(=O)c4ccccc4)c4ccccc4)C(C)=C1C3(C)C)[C@]1(OC(C)=O)CO[C@@H]1C[C@@H]2O` [Taxol, paclitaxel, reference compound], in assay [1] (Group #3: 24 μmol/kg of Taxol iv on days 7, 9, 11 and 13), the median survival is given as 11.55 days. On to Motexafin Gadolinium [MGd], for which the median survival in assay [1] (Group #2: 20 μmol/kg MGd iv on days 7, 9, 11 and 13) was 12.90 days; in assay [2] (Group #2: 20 μmol/kg MGd iv on days 10, 12 and 14) it was 10.04 days; in assay [3] (Group #2: 20 μmol/kg MGd iv thrice at three day intervals after tumor established), 13.07 days; in the assay with murine Lewis lung cancer, 12.42 days. Regarding bleomycin [reference compound], in assay [3] (Group #3: 10 units/kg bleomycin iv thrice at three day intervals after tumor established), the median survival is 14.73 days. As to `O=NN(CCCl)C(=O)NCCCl` [BCNU, carmustine, reference compound], the median survival in assay [2] (Group #3: 15 mg/kg BCNU ip on days 10, 12 and 14) was determined as 10.46 days.
